The target of series [1] is CB1 (Rattus norvegicus, UniProt P20272). In words: Rat CB1 receptor binding using brain membrane, [3H]SR141716A displacement (Protocol I). Set-up: CB1 receptor present in a rat brain membrane preparation; from tissue; host or cells: rat brain membrane; inhibition: dose or concentration left out as unconfirmed. The note with it: 1 h. As to the method: I. In Vitro Protocol for Rat CB1 Receptor Binding Using Brain Membrane
In this assay, [^3H]SR141716A (5-(4-chlorophenyl)-1-(2,4-dichlorophenyl)-4-methyl-N-(1-piperidyl)pyrazole-3-carboxamide) was used to bind the CB1 receptor present in a rat brain membrane preparation which can be displaced by unlabeled ligands having affinity to the CB1 receptor.
The assay was performed according to the modified method of Thomas et al., 1998 (JPET 285: 285-292). The total reaction mixture ([…]) contained Tris-BSA buffer (50 mM Tris, pH 7.4 with 1.5% BSA) or unlabeled SR141716A […] or test samples […], [^3H] SR141716A (2 nM) and […] of rat brain membrane. The non-specific binding was defined by […] of SR141716A. The assay mixture was incubated at 37° C. for 1 hour. The reaction was then stopped by rapid filtration under vacuum using Whatman GF/B-96 micro filter plate. A scintillation cocktail was added and radioactive counts were measured using a Topcount beta scintillation counter.
The standard and test sample dilutions were made in an assay buffer containing either ethanol or DMSO at a final concentration of 1%.
The percent (%) displacement by a test ligand was calculated by comparing the specific bound values.

For series [2], the target named is hCB2 (Homo sapiens, UniProt P34972). The series is described as follows: In vitro binding assay using hCB2-CHO membranes, [3H]-CP-55,940 displacement (Protocol IV). Set-up: expressed in transfected cells; host or cells: CHO (hCB2-CHO, generated in-house). The note with it: 1 h; hCB2-CHO membranes, [3H]-CP-55,940 displacement; read-out: % Displacement Protocol IV. The method, boiled down: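 Compounds were tested at a single 300 nM final concentration for displacing 0.75 nM [3H]-CP-55,940 from hCB2-CHO membranes (1 h, 30 °C, 50 mM Tris pH 7.4, 5 mM MgCl2, 1 mM EDTA, 0.1% BSA). Filter-bound radioactivity was counted, with 0.5 μM unlabelled CP-55,940 for nonspecific binding; results are % displacement.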
Sequence of hCB2 (P34972 whole entry): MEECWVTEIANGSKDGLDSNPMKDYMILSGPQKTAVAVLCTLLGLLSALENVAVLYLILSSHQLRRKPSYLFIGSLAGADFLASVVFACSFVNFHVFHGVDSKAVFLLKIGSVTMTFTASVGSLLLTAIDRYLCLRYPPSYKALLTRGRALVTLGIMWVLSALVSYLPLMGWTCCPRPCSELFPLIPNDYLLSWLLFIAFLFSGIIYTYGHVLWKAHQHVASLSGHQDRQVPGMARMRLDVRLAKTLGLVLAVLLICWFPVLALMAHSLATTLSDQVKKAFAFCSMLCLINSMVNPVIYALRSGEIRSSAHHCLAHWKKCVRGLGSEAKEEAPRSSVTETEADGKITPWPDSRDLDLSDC

The mark [3] stands for this setting: rat brain membrane, [3H]SR141716A displacement, read-out: % Displacement Protocol I.

Here are results for 23 molecules from patent US7923465B2, “Cannabinoid receptor ligands, pharmaceutical compositions containing them, and process for their preparation” (priority 2005, dated 2011).

Like-named read-outs stand apart in the source and are kept apart here.

Sequence of CB1 (P20272 whole entry): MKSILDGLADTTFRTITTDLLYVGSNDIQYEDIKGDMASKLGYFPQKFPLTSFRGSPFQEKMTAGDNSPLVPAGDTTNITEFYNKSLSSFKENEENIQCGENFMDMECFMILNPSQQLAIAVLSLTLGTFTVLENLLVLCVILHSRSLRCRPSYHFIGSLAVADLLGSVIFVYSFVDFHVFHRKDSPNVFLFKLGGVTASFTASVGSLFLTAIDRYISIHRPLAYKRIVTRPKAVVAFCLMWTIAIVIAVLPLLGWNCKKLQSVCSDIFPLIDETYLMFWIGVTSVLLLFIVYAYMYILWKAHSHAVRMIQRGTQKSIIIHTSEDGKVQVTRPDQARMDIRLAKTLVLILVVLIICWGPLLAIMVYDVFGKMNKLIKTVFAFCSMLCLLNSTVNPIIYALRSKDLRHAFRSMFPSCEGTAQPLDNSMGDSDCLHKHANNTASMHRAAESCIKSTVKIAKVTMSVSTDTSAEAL

Broadly, the melting point is the temperature of the solid-liquid transition. In turn, `O=C(NNc1ccccc1)c1nn(-c2ccc(Cl)cc2)c2c1C1CCC2C1` (stereo not shown) [Example 228, N(3)-Phenylamino-1-(4-chlorophenyl)-4,5,6,7-tetrahydro-1H-4,7-methano-indazole-3-carboxamide] gave a melting point of 138 to 141 °C. Also, the inhibition in series [1] (setting [3]) worked out at 16.1%. Further, the inhibition at 0.3 µM in series [2] is 9.4%.
Molecule `O=C(NNc1ccc(Cl)cn1)c1nn(-c2ccc(Cl)cc2)c2c1C1CC3CC(C1)CC2C3` [Example 135, N(7)-(5-Chloro-2-pyridylamino)-5-(4-chlorophenyl)-5,6-diazatetracyclo[7.3.1.1^3,11.0^4,8]tetradeca-4(8),6-diene-7-carboxamide] had a melting point of 130 to 135 °C. Further, the inhibition in series [1] (setting [3]) worked out at 20.5%. Moreover, the inhibition at 0.3 µM in series [2] worked out at 6.48%.
Regarding `O=C(NCc1ccc(Cl)cc1)c1nn(-c2ccc(Cl)cc2Cl)c2c1C1CCC2C1` (stereo not shown) [Example 250, N(3)-(4-Chlorobenzyl)-1-(2,4-dichlorophenyl)-4,5,6,7-tetrahydro-1H-4,7-methano-indazole-3-carboxamide], the melting point is 139 to 142 °C. Also, in series [1] (setting [3]), the inhibition is 27.1%. In series [2], the inhibition at 0.3 µM was determined as 27.9%.
The molecule `O=C(NNc1ccc(Cl)cc1)c1nn(-c2ccc(Cl)cc2Cl)c2c1C1CCC2C1` (stereo not shown) [Example 259, N(3)-[(4-Chlorophenyl)amino]-1-(2,4-dichlorophenyl)-4,5,6,7-tetrahydro-1H-4,7-methano-indazole-3-carboxamide] showed a melting point of 141 to 144 °C. For the same molecule, the inhibition in series [1] (setting [3]) is 18.3%. In series [2], the inhibition at 0.3 µM is 33.3%.
`O=C(NNc1ccccc1Br)c1nn(-c2ccc(Cl)cc2Cl)c2c1C1CC3CC(C1)CC2C3` [Example 176, N(7)-(2-Bromophenylamino)-5-(2,4-dichlorophenyl)-5,6-diazatetracyclo[7.3.1.1^3,11.0^4,8]tetradeca-4(8),6-diene-7-carboxamide] came in with a melting point of 196 to 199 °C. In series [1] (setting [3]), the inhibition stood at 65.6%. In series [2], the inhibition at 0.3 µM came to 30.5%.
On to `O=C(NNc1cccc(F)c1)c1nn(-c2ccc(Cl)cc2)c2c1C1CC3CC(C1)CC2C3` [Example 133, N(7)-(3-fluorophenylamino)-5-(4-chlorophenyl)-5,6-diazatetracyclo[7.3.1.1^3,11.0^4,8]tetradeca-4(8),6-diene-7-carboxamide], for which the melting point is 203 °C. Moreover, the inhibition in series [1] (setting [3]) stood at 59.7%.
As to `Cc1ccc(-n2nc(C(=O)NNc3ccc(Cl)cc3Cl)c3c2C2CC4CC(CC3C4)C2)cc1` [Example 161, N(7)-(2,4-Dichlorophenylamino)-5-(4-methylphenyl)-5,6-diazatetracyclo[7.3.1.1^3,11.0^4,8]tetradeca-4(8),6-diene-7-carboxamide], the melting point lay within 208 to 215 °C. Also, in series [1] (setting [3]), the inhibition turned out to be 27.9%. In addition, in series [2], the inhibition at 0.3 µM was determined as 39.4%.
Regarding `O=C(NNc1ccccc1)c1n[nH]c2c1C1(c3ccccc3)CCC2C1` (stereo not shown) [Example 204, N(3)-Phenylamino-4-phenyl-4,5,6,7-tetrahydro-1H-4,7-methano-indazole-3-carboxamide], the melting point is 189 °C. Also, in series [1] (setting [3]), the inhibition was -10.3%. Moreover, the inhibition at 0.3 µM in series [2] turned out to be 10.5%.
The molecule `O=C(NCc1ccccn1)c1nn(-c2ccc(Cl)cc2)c2c1C1CC3CC(C1)CC2C3` [Example 120, N(7)-(2-Pyridylmethyl)-5-(4-chlorophenyl)-5,6-diazatetracyclo[7.3.1.1^3,11.0^4,8]tetradeca-4(8),6-diene-7-carboxamide] showed a melting point of 187 °C. For the same molecule, the inhibition in series [1] (setting [3]) came to 30.4%. The inhibition at 0.3 µM in series [2] came out at 9.18%.
The molecule `O=C(NNc1ccccc1)c1nn(-c2ccccc2Cl)c2c1C1CCC2C1` (stereo not shown) [Example 208, N(3)-Phenylamino-1-(2-chlorophenyl)-4,5,6,7-tetrahydro-1H-4,7-methano-indazole-3-carboxamide] gave a melting point of 205 °C. For the same molecule, the inhibition in series [1] (setting [3]) was -1.2%. Moreover, the inhibition at 0.3 µM in series [2] is 0%.
Consider `O=C(NCc1ccccc1)c1nn(-c2ccc(Cl)cc2)c2c1C1CCC2C1` (stereo not shown) [Example 220, N(3)-Benzyl-1-(4-chlorophenyl)-4,5,6,7-tetrahydro-1H-4,7-methano-indazole-3-carboxamide], for which the melting point fell in the range of 112 to 115 °C. The inhibition in series [1] (setting [3]) came out at 29.5%. In addition, the inhibition at 0.3 µM in series [2] stood at 25.3%.
As to `O=C(NN1CCCCC1)c1nn(-c2ccccc2)c2c1C1CCC2C1` (stereo not shown) [Example 201, N(3)-Piperidino-1-phenyl-4,5,6,7-tetrahydro-1H-4,7-methano-indazole-3-carboxamide], the melting point amounted to 144 °C. Moreover, in series [1] (setting [3]), the inhibition was 9%. Moreover, the inhibition at 0.3 µM in series [2] was determined as 19.8%.
For `O=C(NNc1ccccc1)c1nn(-c2ccc(Br)cc2)c2c1C1CCC2C1` (stereo not shown) [Example 277, N(3)-Phenylamino-1-(4-bromophenyl)-4,5,6,7-tetrahydro-1H-4,7-methano-indazole-3-carboxamide], the melting point was 138 °C. Also, the inhibition in series [1] (setting [3]) was -12.8%. Moreover, the inhibition at 0.3 µM in series [2] turned out to be 22.1%.
`O=C(NC1CCCCC1)c1nn(-c2ccc(F)cc2)c2c1C1CCC2C1` (stereo not shown) [Example 279, N(3)-Cyclohexyl-1-(4-fluorophenyl)-4,5,6,7-tetrahydro-1H-4,7-methano-indazole-3-carboxamide]: the melting point was determined as 127 °C. In addition, the inhibition in series [1] (read-out: % Displacement Protocol I, rat brain membrane, [3H]SR141716A displacement) is 62%.
`COc1ccccc1NC(=O)c1nn(-c2ccc(Cl)cc2)c2c1C1CCC2C1` (stereo not shown) [Example 218, N(3)-(2-Methoxyphenyl)-1-(4-chlorophenyl)-4,5,6,7-tetrahydro-1H-4,7-methano-indazole-3-carboxamide] displayed a melting point of 149 to 151 °C. Besides, the inhibition in series [1] (setting [3]) came to 29.9%.
The like results for `O=C(NNc1ccc(F)cc1)c1nn(-c2ccc(Cl)cc2)c2c1C1CC3CC(C1)CC2C3` [Example 130, N(7)-(4-Fluorophenylamino)-5-(4-chlorophenyl)-5,6-diazatetracyclo[7.3.1.1^3,11.0^4,8]tetradeca-4(8),6-diene-7-carboxamide] were, in that order, 125 to 127 °C and 60.6%.
In the case of `O=C(NNc1ccc(Cl)cc1Cl)c1nn(-c2ccccc2Cl)c2c1C1CC3CC(C1)CC2C3` [Example 181, N(7)-(2,4-Dichlorophenylamino)-5-(2-chlorophenyl)-5,6-diazatetracyclo[7.3.1.1^3,11.0^4,8]tetradeca-4(8),6-diene-7-carboxamide], the melting point is 233 to 240 °C. Besides, the inhibition in series [1] (setting [3]) was determined as 16.4%.
Regarding `O=C(NNc1ccccc1)c1nn(-c2ccc(F)cc2F)c2c1C1CCC2C1` (stereo not shown) [Example 285, N(3)-Phenylamino-1-(2,4-difluorophenyl)-4,5,6,7-tetrahydro-1H-4,7-methano-indazole-3-carboxamide], the melting point amounted to 161 °C. Further, the inhibition in series [1] (setting [3]) is 61.9%.
Molecule `O=C(NCc1ccccc1)c1nn(-c2ccc(F)cc2)c2c1C1CCC2C1` (stereo not shown) [Example 280, N(3)-Benzyl-1-(4-fluorophenyl)-4,5,6,7-tetrahydro-1H-4,7-methano-indazole-3-carboxamide] had a melting point of 104 °C. Besides, in series [1] (setting [3]), the inhibition came out at 33%.
For `O=C(NCc1ccccc1Cl)c1nn(-c2ccc(Cl)cc2Cl)c2c1C1CCC2C1` (stereo not shown) [Example 249, N(3)-(2-Chlorobenzyl)-1-(2,4-dichlorophenyl)-4,5,6,7-tetrahydro-1H-4,7-methano-indazole-3-carboxamide], the melting point was 117 to 120 °C. Also, the inhibition in series [1] (setting [3]) turned out to be 47.7%.
Molecule `O=C(NN1CCCCC1)c1nn(-c2ccc(F)cc2F)c2c1C1CCC2C1` (stereo not shown) [Example 289, N(3)-Piperidino-1-(2,4-difluorophenyl)-4,5,6,7-tetrahydro-1H-4,7-methano-indazole-3-carboxamide] yielded a melting point of 143 °C. In series [1] (setting [3]), the inhibition turned out to be 71.3%.
For the molecule `O=C(NCc1ccccc1)c1nn(-c2ccccc2)c2c1C1CCC2C1` (stereo not shown) [Example 203, N(3)-Benzyl-1-phenyl-4,5,6,7-tetrahydro-1H-4,7-methano-indazole-3-carboxamide], the melting point is 115 °C. Also, in series [1] (setting [3]), the inhibition is -10.4%.
For the molecule `O=C(NCc1ccc(Br)cc1)c1nn(-c2ccc(Cl)cc2)c2c1C1CCC2C1` (stereo not shown) [Example 225, N(3)-(4-Bromobenzyl)-1-(4-chlorophenyl)-4,5,6,7-tetrahydro-1H-4,7-methano-indazole-3-carboxamide], the melting point is 181 to 183 °C. Further, in series [1] (setting [3]), the inhibition was 31.1%.
